# Source: ChEMBL document CHEMBL4152362, “Discovery of DS-6930, a potent selective PPARγ modulator. Part II: Lead optimization” (Bioorg Med Chem, 2018)
# Active and inactive are the calls of the source. No cut-off for these calls is given here.
# Experiments:
# [1] = Metabolic stability in human liver microsomes after 0.5 hrs; format: ADME, microsome; conditions: read-out: Stability
# [2] = Apparent permeability of the compound after 4 hrs by PAMPA; format: ADME
# [3] = 1-octanol/PBS distribution co-efficient, log D of the compound at […] at pH 7.4 after 30 mins by HPLC-MS/MS method; format: physicochemical
# [4] = target: T1, Peroxisome proliferator-activated receptor alpha (Homo sapiens) (UniProt Q07869); experiment: Agonist activity at recombinant human GAL4-DBD fused PPARalpha LBD expressed in COS7 cells at 10 uM after 24 hrs by luciferase reporter gene assay relative to 2-(4-tert-Butylphenoxy)-3-[4-[2-[(4-pyridin-2-ylbenzoyl)amino]ethoxy] phenyl]propionic acid; format: cell-based
# T1 sequence (whole entry): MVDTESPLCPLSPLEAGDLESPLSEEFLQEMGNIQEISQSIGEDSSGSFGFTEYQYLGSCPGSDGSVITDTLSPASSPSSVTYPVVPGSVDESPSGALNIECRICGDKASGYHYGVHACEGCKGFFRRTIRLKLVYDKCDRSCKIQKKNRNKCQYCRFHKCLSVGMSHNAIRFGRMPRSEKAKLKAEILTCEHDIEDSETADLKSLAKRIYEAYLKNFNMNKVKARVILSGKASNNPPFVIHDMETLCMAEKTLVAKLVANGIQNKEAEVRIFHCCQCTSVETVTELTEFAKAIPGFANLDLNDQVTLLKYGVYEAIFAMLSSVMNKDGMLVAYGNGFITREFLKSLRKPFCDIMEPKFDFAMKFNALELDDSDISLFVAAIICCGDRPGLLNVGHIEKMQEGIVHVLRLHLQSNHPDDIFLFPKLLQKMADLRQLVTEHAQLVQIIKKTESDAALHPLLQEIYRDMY
# [5] = target: T2, Peroxisome proliferator-activated receptor gamma (Homo sapiens) (UniProt P37231); experiment: Agonist activity at recombinant human GAL4-DBD fused PPARgamma LBD expressed in COS7 cells at 10 uM after 24 hrs by luciferase reporter gene assay relative to rosiglitazone; format: cell-based
# T2 sequence (whole entry): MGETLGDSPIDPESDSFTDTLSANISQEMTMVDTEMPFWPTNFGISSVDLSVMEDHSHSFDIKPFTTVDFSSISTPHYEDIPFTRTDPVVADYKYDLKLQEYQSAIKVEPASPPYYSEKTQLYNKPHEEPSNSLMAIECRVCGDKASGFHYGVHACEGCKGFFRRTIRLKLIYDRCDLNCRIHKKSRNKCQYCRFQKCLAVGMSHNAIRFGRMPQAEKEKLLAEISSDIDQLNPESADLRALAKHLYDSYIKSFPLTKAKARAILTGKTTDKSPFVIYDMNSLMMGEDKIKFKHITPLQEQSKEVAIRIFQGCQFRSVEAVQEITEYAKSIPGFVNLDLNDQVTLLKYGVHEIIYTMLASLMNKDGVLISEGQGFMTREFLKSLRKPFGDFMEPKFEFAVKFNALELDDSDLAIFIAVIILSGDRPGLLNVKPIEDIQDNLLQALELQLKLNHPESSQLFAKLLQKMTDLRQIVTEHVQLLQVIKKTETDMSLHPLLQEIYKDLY
# [6] = target: T3, Peroxisome proliferator-activated receptor alpha (Homo sapiens, UniProt Q07869); experiment: Agonist activity at recombinant human GAL4-DBD fused PPARalpha LBD expressed in COS7 cells after 24 hrs by luciferase reporter gene assay; format: cell-based
# T3 sequence (Q07869 whole entry): T1 sequence (whole entry)
# [7] = Aqueous thermodynamic solubility of the compound in pH 6.8 solution up to 4 hrs by HPLC-UV analysis; format: physicochemical; conditions: read-out: Therm_solubility
# [8] = target: T4, Peroxisome proliferator-activated receptor delta (Homo sapiens) (UniProt Q03181); experiment: Agonist activity at PPARdelta (unknown origin) at 10 uM
# T4 sequence (whole entry): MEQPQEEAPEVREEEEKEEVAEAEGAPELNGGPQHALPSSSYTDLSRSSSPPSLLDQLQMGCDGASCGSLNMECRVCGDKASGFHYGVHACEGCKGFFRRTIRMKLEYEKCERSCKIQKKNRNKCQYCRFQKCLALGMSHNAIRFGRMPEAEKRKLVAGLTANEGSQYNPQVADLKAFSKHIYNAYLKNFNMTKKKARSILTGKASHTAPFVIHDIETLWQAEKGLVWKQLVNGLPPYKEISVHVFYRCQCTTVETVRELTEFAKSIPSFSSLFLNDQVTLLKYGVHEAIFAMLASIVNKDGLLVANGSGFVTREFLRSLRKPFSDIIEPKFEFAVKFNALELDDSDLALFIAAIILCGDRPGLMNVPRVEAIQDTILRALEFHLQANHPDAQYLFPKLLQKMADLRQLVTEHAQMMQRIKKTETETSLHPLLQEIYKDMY
# [9] = target: T5, Peroxisome proliferator-activated receptor gamma (Homo sapiens, UniProt P37231); experiment: Agonist activity at recombinant human GAL4-DBD fused PPARgamma LBD expressed in COS7 cells after 24 hrs by luciferase reporter gene assay; format: cell-based
# T5 sequence (P37231 whole entry): T2 sequence (whole entry)
remaining at 0.5 h [1] [%],Papp at 4 h [2] [×10⁻⁶ cm/s],logD at 0.5 h [3],Emax [4] [%],Emax [5] [%],EC50 [6] [nM],solubility thermodynamic at 4 h [7] [µg/mL],Activity [8],EC50 [9] [nM],Compound
80,6.8,1,6,80,> 10000,360,inactive,746,Cc1ccc(Oc2cc3c(cn2)nc(COc2cccc(C(=O)O)c2)n3C)cc1
73,12.4,2.2,30,74,> 10000,16,inactive,90,Cc1ccc(Oc2ccc3nc(COc4cccc(C(=O)O)c4)n(C)c3n2)cc1C
,11,1.4,7,117,> 10000,85,,717,Cc1ccc(C)c(Oc2ccc3nc(COc4cccc(C(=O)O)c4)n(C)c3c2)n1
92,25.6,2.2,45,88,> 10000,1.7,inactive,269,Cn1c(COc2cccc(C(=O)O)c2)nc2ccc(Oc3ccc(Cl)c(F)c3)nc21
71,17.4,2.3,19,83,> 10000,0.5,inactive,41,Cc1cc(C)cc(Oc2ccc3nc(COc4cccc(C(=O)O)c4)n(C)c3n2)c1
63,28.8,2.3,17,75,> 10000,0.9,inactive,101,Cc1ccc(Oc2ccc3nc(COc4cccc(C(=O)O)c4)n(C)c3n2)c(C)c1
100,3.9,0.6,3,80,> 10000,7.1,,280,Cn1c(COc2cccc(C(=O)O)c2)nc2ccc(Oc3ncccc3F)cc21
94,4.8,0.9,4,42,> 10000,31,,129,Cc1ccc(Oc2ccc3nc(COc4cccc(C(=O)O)c4)n(C)c3c2)nc1
100,2.2,0.4,1,74,> 10000,62,,1130,Cn1c(COc2cccc(C(=O)O)c2)nc2ccc(Oc3ccccn3)cc21
93,8.3,1.1,2,100,> 10000,14,,,Cc1cc(F)cnc1Oc1ccc2nc(COc3cccc(C(=O)O)c3)n(C)c2c1
78,8.6,1.5,55,62,,11,inactive,1060,Cn1c(COc2cccc(C(=O)O)c2)nc2ccc(Oc3ccc(F)cc3)nc21
98,11.2,1.4,15,73,> 10000,11,inactive,1170,Cn1c(COc2cccc(C(=O)O)c2)nc2cnc(Oc3ccc(Cl)c(F)c3)cc21
,,,4,74,,,,,Cc1cnc(Oc2ccc3nc(COc4cccc(C(=O)O)c4)n(C)c3c2)c(F)c1
100,2.7,0.8,1,78,> 10000,92,,1890,Cc1cccc(Oc2ccc3nc(COc4cccc(C(=O)O)c4)n(C)c3c2)n1
,,,,65,,,,12400,COC(=O)c1cccc(OCc2nc3ccc(Oc4ccccc4)nc3n2C)c1
98,7.6,1.2,13,67,> 10000,7.7,,736,Cn1c(COc2cccc(C(=O)O)c2)nc2ccc(Oc3cccc(Cl)n3)cc21
100,6,0.9,8,83,> 10000,37,,351,Cc1cccnc1Oc1ccc2nc(COc3cccc(C(=O)O)c3)n(C)c2c1
100,,1.2,,61,,160,inactive,,Cl.Cl.Cn1c(COc2cccc(C(=O)O)c2)nc2ccc(Oc3ccccc3)nc21
96,14.8,2.1,56,80,,5.2,inactive,50,Cc1ccc(Oc2ccc3nc(COc4cccc(C(=O)O)c4)n(C)c3n2)cc1F
100,3.6,0.6,4,59,> 10000,79,inactive,335,Cn1c(COc2cccc(C(=O)O)c2)nc2cnc(Oc3ccc4c(c3)OCC4)cc21
,10.3,1.2,11,93,> 10000,11,,615,Cn1c(COc2cccc(C(=O)O)c2)nc2ccc(Oc3cc(Cl)ccn3)cc21
,4.7,0.6,5,87,> 10000,79,,808,Cn1c(COc2cccc(C(=O)O)c2)nc2ccc(Oc3ccc(F)cn3)cc21

Compound,remaining at 0.5 h [1] [%],Papp at 4 h [2] [×10⁻⁶ cm/s],logD at 0.5 h [3],Emax [4] [%],Emax [5] [%],EC50 [6] [nM],solubility thermodynamic at 4 h [7] [µg/mL],Activity [8],EC50 [9] [nM]
Cc1ccnc(Oc2ccc3nc(COc4cccc(C(=O)O)c4)n(C)c3c2)c1,,3.5,0.8,2,41,> 10000,33,,458
Cc1ccc(Oc2ccc3nc(COc4cccc(C(=O)O)c4)n(C)c3c2)nc1C,100,7.7,1.3,8,81,> 10000,190,,176
Cn1c(COc2cccc(C(=O)O)c2)nc2ccc(Oc3ncccc3Cl)cc21,99,8.1,1.1,6,93,> 10000,15,,200
